Where two headings read alike, the source gives them in different places. Square brackets hold non-standard residues; d marks the D form. Peptide text beside a SMILES is read from it. NMeThr(4R-Me,4-(CH2)6NHAc) = CN[C@H](C(=O)O)[C@H](O)[C@H](C)CCCCCCNC(C)=O; NMeL = CN[C@@H](CC(C)C)C(=O)O; NMeV = CN[C@H](C(=O)O)C(C)C; dNMeA = CN[C@H](C)C(=O)O; Abu = CC[C@H](N)C(=O)O
Assays:
[1] = CRV431 blood and liver exposures across mouse and rat studies; settings: daily oral dosing, mice and rats
Description: Male and female Sprague–Dawley rats and male C57BL/6 mice from the carbon tetrachloride and NASH studies were used to evaluate CRV431 pharmacokinetics and distribution. […] Terminal whole blood and livers were collected and frozen until drug extraction. Liver samples were homogenized in PBS or 1% formic acid (0.1 g–0.4 g liver sample per ml solvent) with bead-based homogenizers (TissueLyser or Beadruptor). […] Liver CRV431 concentrations were normalized to the masses of the liver samples.

MRP2 [2] = target: T1, MRP2 (Homo sapiens, UniProt Q92887)
T1 sequence (Q92887 whole entry): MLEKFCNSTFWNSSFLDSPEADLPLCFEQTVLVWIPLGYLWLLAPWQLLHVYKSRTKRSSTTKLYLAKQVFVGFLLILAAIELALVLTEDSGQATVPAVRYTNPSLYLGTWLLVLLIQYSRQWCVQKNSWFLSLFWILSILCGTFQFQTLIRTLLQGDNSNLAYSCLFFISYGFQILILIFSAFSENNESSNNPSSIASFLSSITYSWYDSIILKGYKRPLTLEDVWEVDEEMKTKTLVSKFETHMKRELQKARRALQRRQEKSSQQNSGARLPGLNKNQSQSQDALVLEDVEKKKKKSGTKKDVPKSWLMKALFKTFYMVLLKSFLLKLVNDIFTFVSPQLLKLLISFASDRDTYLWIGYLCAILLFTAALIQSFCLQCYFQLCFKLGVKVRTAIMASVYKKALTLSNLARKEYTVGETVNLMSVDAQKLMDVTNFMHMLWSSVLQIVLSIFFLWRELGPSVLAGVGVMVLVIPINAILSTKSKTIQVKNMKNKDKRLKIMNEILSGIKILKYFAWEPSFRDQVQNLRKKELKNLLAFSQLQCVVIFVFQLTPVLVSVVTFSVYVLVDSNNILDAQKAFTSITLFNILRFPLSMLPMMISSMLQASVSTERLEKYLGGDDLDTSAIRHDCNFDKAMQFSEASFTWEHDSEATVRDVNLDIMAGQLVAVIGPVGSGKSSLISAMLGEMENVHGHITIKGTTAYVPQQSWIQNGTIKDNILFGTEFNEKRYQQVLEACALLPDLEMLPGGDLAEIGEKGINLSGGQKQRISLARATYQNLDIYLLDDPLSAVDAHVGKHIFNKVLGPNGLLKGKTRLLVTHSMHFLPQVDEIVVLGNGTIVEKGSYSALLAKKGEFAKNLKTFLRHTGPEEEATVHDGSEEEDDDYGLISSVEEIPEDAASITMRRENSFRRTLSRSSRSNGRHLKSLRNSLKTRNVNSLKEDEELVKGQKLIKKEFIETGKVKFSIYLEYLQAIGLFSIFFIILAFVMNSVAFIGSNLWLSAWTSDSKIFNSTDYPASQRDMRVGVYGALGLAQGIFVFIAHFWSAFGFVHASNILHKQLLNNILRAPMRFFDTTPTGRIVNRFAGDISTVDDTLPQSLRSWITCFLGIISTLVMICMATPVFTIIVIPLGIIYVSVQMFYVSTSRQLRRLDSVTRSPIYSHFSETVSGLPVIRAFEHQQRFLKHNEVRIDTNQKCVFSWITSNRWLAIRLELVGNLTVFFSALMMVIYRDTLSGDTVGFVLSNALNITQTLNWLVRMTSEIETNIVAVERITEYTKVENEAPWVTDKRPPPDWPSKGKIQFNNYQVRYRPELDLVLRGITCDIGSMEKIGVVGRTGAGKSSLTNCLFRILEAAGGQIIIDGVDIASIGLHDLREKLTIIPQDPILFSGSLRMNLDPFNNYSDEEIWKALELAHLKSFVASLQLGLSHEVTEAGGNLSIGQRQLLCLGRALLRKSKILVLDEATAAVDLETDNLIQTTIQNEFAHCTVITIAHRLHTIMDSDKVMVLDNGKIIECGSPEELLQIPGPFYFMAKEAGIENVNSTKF
Description: (§2) Bile salt export pump (BSEP) and multidrug resistance protein (MRP)1 inhibition was assessed by measuring substrate accumulation in membrane vesicles prepared from insect Sf9 cells and recombinantly expressing BSEP and MRP2 (Genomembrane). Inhibition of all other transporters was assessed by measuring substrate accumulation in cells recombinantly expressing the transporter. Known inhibitors of each transporter were used as positive controls for the assays. […] Specific, ATP-dependent uptake was determined by subtracting uptake in negative control vesicles and cells not expressing the transporters, and secondly by subtracting uptake in the absence of ATP in the assays. Specific, ATP-dependent uptake was plotted as a function of CRV431 concentrations and fitted to nonlinear regressions to obtain IC50 values.

recombinant Cyp D (PPIF) = target: T2, recombinant Cyp D (PPIF) (Homo sapiens, UniProt P30405); assay: Cyclophilin isomerase assay, Cyp D; type: biochemical
T2 construct: purchased Cedarlane Laboratories CLENZ385
T2 sequence (P30405 30-207): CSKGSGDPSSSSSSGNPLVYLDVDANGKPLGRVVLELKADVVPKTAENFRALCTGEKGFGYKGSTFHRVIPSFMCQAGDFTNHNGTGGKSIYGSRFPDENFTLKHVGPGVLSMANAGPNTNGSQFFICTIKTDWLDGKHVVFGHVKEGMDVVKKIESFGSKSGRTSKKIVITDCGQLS
Description: (§1) Cyclophilin isomerase activity was measured with an assay described by [Kofron et al. (1991)] with adaptations to 96-well plates. In this assay cyclophilins catalyze cis-to-trans isomerization of a proline peptide bond in a nitroanalide-coupled peptide substrate followed by cleavage of the trans-conformer peptide by α-chymotrypsin, release of the p-nitroaniline chromogen, and quantitation of p-nitroaniline by absorbance at 410 nm. All solutions were pre-equilibrated, and all assays were conducted at 4°C. Plates were preloaded with 5 µl peptide solution consisting of N-succinyl-alanine-alanine-proline-phenylalanine-p-nitroanilide (S7388; Sigma-Aldrich) and 400 mM lithium chloride (310468; Sigma-Aldrich) in anhydrous trifluoroethanol (T63002; Sigma-Aldrich). […] Absorbance measurements with a BMG Polarstar Galaxy plate reader were begun immediately and made at 6-second intervals for 6 minutes. Reaction curves were represented by increases in optical density 410 nm as a function of reaction time. For Ki determinations, initial reaction velocities were obtained from the reaction curves and plotted relative to substrate concentration, and the curves were fitted to the enzyme competitive inhibition model (GraphPad Prism) to derive Ki, maximum velocity (Vmax), and Michaelis constant values. […]

recombinant Cyp B (PPIB) = target: T3, recombinant Cyp B (PPIB) (Homo sapiens, UniProt P23284); assay: Cyclophilin isomerase assay, Cyp B; type: biochemical
T3 construct: purchased Cedarlane Laboratories CLENZ313
T3 sequence (P23284 34-216): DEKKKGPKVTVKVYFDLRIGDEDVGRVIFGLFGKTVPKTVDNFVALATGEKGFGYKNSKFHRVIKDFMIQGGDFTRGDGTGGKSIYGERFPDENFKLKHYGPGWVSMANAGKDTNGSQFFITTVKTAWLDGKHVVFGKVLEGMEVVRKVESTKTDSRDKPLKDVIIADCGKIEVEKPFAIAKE
Description: as §1

MRP2 [3] = target: T1, MRP2; assay: Drug transporter inhibition, MRP2; settings: MRP2, Vesicles
Description: as §2

BSEP = BSEP (Homo sapiens, UniProt O95342); assay: Drug transporter inhibition, BSEP; settings: Vesicles
BSEP, sequence (O95342 whole entry, canonical isoform): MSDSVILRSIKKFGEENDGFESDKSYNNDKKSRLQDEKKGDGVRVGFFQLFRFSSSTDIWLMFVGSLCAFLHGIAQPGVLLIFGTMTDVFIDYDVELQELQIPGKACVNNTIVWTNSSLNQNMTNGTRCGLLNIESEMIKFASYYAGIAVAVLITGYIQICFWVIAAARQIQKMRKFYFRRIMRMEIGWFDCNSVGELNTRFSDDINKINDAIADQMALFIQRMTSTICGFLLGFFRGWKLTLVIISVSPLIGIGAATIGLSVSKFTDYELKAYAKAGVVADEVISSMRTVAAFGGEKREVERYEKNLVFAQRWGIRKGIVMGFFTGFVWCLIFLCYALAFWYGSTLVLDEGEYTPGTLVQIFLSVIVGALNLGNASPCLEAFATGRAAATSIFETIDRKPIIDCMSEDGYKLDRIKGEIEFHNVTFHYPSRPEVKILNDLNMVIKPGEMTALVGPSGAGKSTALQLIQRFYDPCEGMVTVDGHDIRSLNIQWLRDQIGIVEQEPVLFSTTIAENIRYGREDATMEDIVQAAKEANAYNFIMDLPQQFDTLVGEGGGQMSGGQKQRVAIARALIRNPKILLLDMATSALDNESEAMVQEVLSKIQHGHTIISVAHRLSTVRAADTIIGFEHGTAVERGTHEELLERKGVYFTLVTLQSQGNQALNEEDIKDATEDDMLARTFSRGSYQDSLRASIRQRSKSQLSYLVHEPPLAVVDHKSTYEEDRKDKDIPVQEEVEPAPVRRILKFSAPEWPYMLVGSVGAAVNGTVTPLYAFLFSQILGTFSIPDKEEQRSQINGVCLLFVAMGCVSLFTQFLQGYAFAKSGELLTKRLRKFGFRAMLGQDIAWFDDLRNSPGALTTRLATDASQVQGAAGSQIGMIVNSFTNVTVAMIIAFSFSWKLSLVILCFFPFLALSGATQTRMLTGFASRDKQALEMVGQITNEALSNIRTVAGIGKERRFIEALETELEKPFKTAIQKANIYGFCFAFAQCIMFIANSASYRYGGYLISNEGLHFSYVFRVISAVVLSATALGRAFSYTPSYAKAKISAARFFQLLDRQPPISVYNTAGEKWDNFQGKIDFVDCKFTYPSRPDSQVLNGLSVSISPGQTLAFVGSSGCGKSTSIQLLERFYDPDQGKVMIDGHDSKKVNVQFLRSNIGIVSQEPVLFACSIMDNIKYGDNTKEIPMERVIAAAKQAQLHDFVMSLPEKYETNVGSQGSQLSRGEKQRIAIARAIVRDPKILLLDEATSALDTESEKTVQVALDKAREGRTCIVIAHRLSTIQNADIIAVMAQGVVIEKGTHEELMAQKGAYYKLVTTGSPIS
Description: as §2

[4] = target: cyclophilins A, B, D, and G; assay: Cyclophilin isomerase assay, all isoforms tested; type: biochemical
Description: Cyclophilin isomerase activity was measured with an assay described by [Kofron et al. (1991)] with adaptations to 96-well plates. In this assay cyclophilins catalyze cis-to-trans isomerization of a proline peptide bond in a nitroanalide-coupled peptide substrate followed by cleavage of the trans-conformer peptide by α-chymotrypsin, release of the p-nitroaniline chromogen, and quantitation of p-nitroaniline by absorbance at 410 nm. All solutions were pre-equilibrated, and all assays were conducted at 4°C. Plates were preloaded with 5 µl peptide solution consisting of N-succinyl-alanine-alanine-proline-phenylalanine-p-nitroanilide (S7388; Sigma-Aldrich) and 400 mM lithium chloride (310468; Sigma-Aldrich) in anhydrous trifluoroethanol (T63002; Sigma-Aldrich). […] Cis-peptide represented 55% of the peptide isomers, based on initial reaction bursts, and therefore peptide concentration was corrected to 55% of input in subsequent calculations. […] Absorbance measurements with a BMG Polarstar Galaxy plate reader were begun immediately and made at 6-second intervals for 6 minutes. Reaction curves were represented by increases in optical density 410 nm as a function of reaction time. […]

## CC[C@@H]1NC(=O)[C@H]([C@H](O)[C@H](C)CCCCCCNC(C)=O)N(C)C(=O)[C@H](C(C)C)N(C)C(=O)[C@H](CC(C)C)N(C)C(=O)[C@H](CC(C)C)N(C)C(=O)[C@@H](C)NC(=O)[C@H](C)NC(=O)[C@H](CC(C)C)N(C)C(=O)[C@H](C(C)C)NC(=O)[C@H](CC(C)C)N(C)C(=O)[C@@H](C)N(C)C1=O [CRV431] (cyclo(A[dA][NMeL][NMeL][NMeV][NMeThr(4R-Me,4-(CH2)6NHAc)][Abu][dNMeA][NMeL]V[NMeL]))
[1]
  fold higher levels in liver than in the blood: 5- to 15 fold
MRP2 [2]
  IC50: 20700 nM
Recombinant Cyp D (PPIF)
  IC50: 2.8 nM
Recombinant Cyp D (PPIF); CsA IC50 vs CRV431 IC50, PPIF
  IC50 Fold Difference: 3.6
Recombinant Cyp B (PPIB); CsA IC50 vs CRV431 IC50, PPIB
  IC50 Fold Difference: 3.7
Recombinant Cyp B (PPIB); PPIB (Cyp B), one peptide substrate concentration
  IC50: 3.1 nM
MRP2 [3]
  CRV431 Inhibitory Potency vs. CsA: 2.1× less
BSEP
  CRV431 Inhibitory Potency vs. CsA: 3.4× less
[4]; range over Cyp A, G, read-out: IC50 values, all cyclophilin isoforms
  IC50: 2.5 to 7.3 nM
[4]; range over isoforms A, G (abstract), read-out: Inhibitory constant or IC50 values
  IC50: 1 to 7 nM

From publication PMC6815936, “A Pan-Cyclophilin Inhibitor, CRV431, Decreases Fibrosis and Tumor Development in Chronic Liver Disease Models” (The Journal of Pharmacology and Experimental Therapeutics, 2019)
